Source: US7592365B2, “Substituted pyrroles, compositions containing same, method for making same and use thereof” (Aventis Pharma S.A., priority 2005, dated 2009)

How the values were obtained:
human FAK = biological target: T1, human FAK (Homo sapiens, UniProt Q05397); assay: FAK autophosphorylation inhibition, time-resolved fluorescence test (HTRF); assay type: biochemical; conditions: 15 μM ATP, 1 hour at 37° C.; read-out: FAK IC 50
T1 construct: The complete human FAK cDNA, whose N-terminal end was labelled with histidine, was cloned into a baculovirus expression vector pFastBac HTc; made in house
Experimental: The inhibitory activity of the compounds on FAK is determined by a measurement of the inhibition of the autophosphorylation of the enzyme using a time-resolved fluorescence test (HTRF).
The complete human FAK cDNA, whose N-terminal end was labelled with histidine, was cloned into a baculovirus expression vector pFastBac HTc. The protein was expressed and purified at about 70% homogeneity.
The kinase activity is determined by incubating the enzyme (6.6 μg/ml) with various concentrations of test compound in a 50 mM Hepes buffer, pH=7.2, containing 10 mM MgCl2, 100 μM Na3VO4, 15 μM ATP for 1 hour at 37° C. The enzymatic reaction is stopped by adding Hepes buffer, pH=7.0, containing 0.4 mM KF, 133 mM EDTA, 0.1% BSA and the labelling is carried out, for 1 to 2 hours at room temperature, by adding to this buffer an anti-histidine antibody labelled with XL665 and a monoclonal antibody phospho-specific for tyrosine, conjugated with europium cryptate (Eu-K). The characteristics of the two fluorophores are available in G. Mathis et al., Anticancer Research, 1997, 17, pages 3011-3014. The energy transfer between the excited europium cryptate to the acceptor XL665 is proportional to the degree of autophosphorylation of FAK. The signal of long duration specific for XL-665 is measured in a Packard Discovery plate counter. All the assays are performed in duplicate and the mean of the two assays is calculated. The inhibition of the FAK autophosphorylation activity with compounds of the invention is expressed as a percentage inhibition relative to a control whose activity is measured in the absence of test compound. For the calculation of the % inhibition, the [signal at 665 nm/signal at 620 nm] ratio is considered.

[1] = biological target: T2, human Tie2 (intracellular domain 776-1124, GST fusion) (Homo sapiens, UniProt Q02763); assay: Phosphorylation of PLC by Tie2 (GST-Tie2), FlashPlate radioactivity test; assay type: biochemical; conditions: 2 μM cold ATP, GST-PLC substrate, 1 hour at 37° C.; read-out: TEI2 IC 50
T2 construct: the amino acids of the intracellular domain 776-1124; made in house
Experimental: The coding sequence for human Tie2 corresponding to the amino acids of the intracellular domain 776-1124 was generated by PCR using the cDNA isolated from human placenta as model. This sequence was introduced into a baculovirus expression vector pFastBacGT in the form of a GST fusion protein.
The inhibitory effect of the molecules is determined in a test of phosphorylation of PLC by Tie2 in the presence of GST-Tie2 purified to about 80% homogeneity. The substrate is composed of the SH2—SH3 fragments of PLC expressed in the form of the GST fusion protein.
The kinase activity of Tie2 is measured in a 20 mM MOPS buffer, pH 7.2, containing 10 mM MgCl2, 10 mM MnCl2, 1 mM DTT, 10 mM glycero-phosphate. A reaction mixture composed of 70 μl of kinase buffer containing 100 ng of GST-Tie2 enzyme per well is deposited in a FlashPlate 96-well plate kept on ice. 10 μl of the test molecule diluted in DMSO to a concentration of 10% maximum are then added. For a given concentration, each measurement is carried out in quadruplicate. The reaction is initiated by adding 20 μl of solution containing 2 μg of GST-PLC, 2 μM of cold ATP and 1 μCi of d′^33P[ATP]. After incubating for 1 hour at 37° C., the reaction is stopped by adding 1 volume (100 μl) of EDTA at 200 mM. After removing the incubation buffer, the wells are washed three times with 300 μl of PBS. The radioactivity is measured on a Wallac MicroBeta1450.
The inhibition of the Tie2 activity is calculated and expressed as a percentage inhibition relative to the control activity determined in the absence of compound.

[2] = biological target: T3, human KDR enzyme (cytoplasmic domain, GST fusion) (Homo sapiens, UniProt P35968); assay: Phosphorylation of substrate by the KDR enzyme in vitro, scintillation technique; assay type: biochemical; conditions: 2 μM cold ATP, PLCγ SH2-SH3 substrate, 1 hour at 37° C.; read-out: KDR IC 50
T3 construct: The cytoplasmic domain of the human KDR enzyme was cloned in a GST fusion form; GST; made in house; host or cells: SF21 insect cells (baculovirus)
Experimental: The inhibitory effect of the compounds is determined in a test of phosphorylation of substrate by the KDR enzyme in vitro by a scintillation technique (96-well plate, NEN).
The cytoplasmic domain of the human KDR enzyme was cloned in a GST fusion form into the baculovirus expression vector pFastBac. The protein was expressed in SF21 cells and purified to about 60% homogeneity.
The kinase activity of KDR is measured in 20 mM MOPS, 10 mM MgCl2, 10 mM MnCl2, 1 mM DTT, 2.5 mM EGTA, 10 mM b-glycerophosphate, pH=7.2, in the presence of 10 mM MgCl2, 100 μM Na3VO4, 1 mM NaF. 10 μl of the compound are added to 70 μl of kinase buffer containing 100 ng of KDR enzyme at 4° C. The reaction is initiated by adding 20 μl of solution containing 2 μg of substrate (SH2—SH3 fragment of PLCγ expressed in the form of a GST fusion protein), 2 μCi γ ^33P[ATP] and 2 μM cold ATP. After incubating for 1 hour at 37° C., the reaction is stopped by adding 1 volume (100 μl) of 200 mM EDTA. The incubation buffer is removed and the wells are washed three times with 300 μl of PBS. The radioactivity is measured in each well using a Top Count NXT (Packard) radioactivity counter.
The background noise is determined by measuring the radioactivity in four different wells containing radioactive ATP and the substrate alone.
A control for total activity is measured in four different wells all containing the reagents (γ^33P-[ATP], KDR and PLCγ substrate) but in the absence of compound.
The inhibition of the KDR activity with the compound of the invention is expressed as percentage inhibition of the control activity determined in the absence of compound.
The compound SU5614 (Calbiochem) (1 μM) is included in each plate as control for inhibition.

T2 sequence (Q02763 776-1124): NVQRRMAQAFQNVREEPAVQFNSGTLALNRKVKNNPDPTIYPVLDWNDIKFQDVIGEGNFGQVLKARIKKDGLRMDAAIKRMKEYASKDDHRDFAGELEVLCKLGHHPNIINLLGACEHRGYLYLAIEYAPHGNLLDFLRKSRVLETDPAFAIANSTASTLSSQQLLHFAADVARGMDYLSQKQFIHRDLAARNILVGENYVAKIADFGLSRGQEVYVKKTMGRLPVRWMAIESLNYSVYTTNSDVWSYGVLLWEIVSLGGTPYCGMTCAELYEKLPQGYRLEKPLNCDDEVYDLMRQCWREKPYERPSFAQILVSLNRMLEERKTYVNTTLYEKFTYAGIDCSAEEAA
T1 sequence (Q05397 whole entry): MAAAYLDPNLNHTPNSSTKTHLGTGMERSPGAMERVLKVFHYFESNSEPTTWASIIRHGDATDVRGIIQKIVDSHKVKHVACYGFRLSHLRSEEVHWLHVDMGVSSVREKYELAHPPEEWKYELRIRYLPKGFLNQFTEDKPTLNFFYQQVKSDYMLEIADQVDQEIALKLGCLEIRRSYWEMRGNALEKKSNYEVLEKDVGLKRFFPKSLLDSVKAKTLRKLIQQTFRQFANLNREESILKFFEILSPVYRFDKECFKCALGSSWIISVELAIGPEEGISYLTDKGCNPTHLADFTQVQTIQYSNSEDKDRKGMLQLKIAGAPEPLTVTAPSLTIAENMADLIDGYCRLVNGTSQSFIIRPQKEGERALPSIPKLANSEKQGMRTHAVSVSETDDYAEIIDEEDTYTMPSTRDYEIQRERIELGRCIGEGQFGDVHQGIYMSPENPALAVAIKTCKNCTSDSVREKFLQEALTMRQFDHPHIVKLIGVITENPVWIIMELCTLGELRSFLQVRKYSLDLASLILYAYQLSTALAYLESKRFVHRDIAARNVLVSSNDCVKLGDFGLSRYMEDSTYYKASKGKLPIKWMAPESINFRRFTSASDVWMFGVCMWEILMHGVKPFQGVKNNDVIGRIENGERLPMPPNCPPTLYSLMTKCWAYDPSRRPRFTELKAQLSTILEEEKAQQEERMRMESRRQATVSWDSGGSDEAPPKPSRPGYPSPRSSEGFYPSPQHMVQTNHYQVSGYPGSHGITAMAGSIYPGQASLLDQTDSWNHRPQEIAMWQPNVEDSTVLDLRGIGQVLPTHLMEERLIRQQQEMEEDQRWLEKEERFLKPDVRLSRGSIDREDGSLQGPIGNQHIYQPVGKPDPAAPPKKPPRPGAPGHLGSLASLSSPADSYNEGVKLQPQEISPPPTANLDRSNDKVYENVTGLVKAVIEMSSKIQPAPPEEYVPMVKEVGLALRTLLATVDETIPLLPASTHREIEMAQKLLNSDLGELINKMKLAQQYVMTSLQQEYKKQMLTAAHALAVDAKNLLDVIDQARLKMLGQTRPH
T3 sequence (P35968 786-1356 limits assumed): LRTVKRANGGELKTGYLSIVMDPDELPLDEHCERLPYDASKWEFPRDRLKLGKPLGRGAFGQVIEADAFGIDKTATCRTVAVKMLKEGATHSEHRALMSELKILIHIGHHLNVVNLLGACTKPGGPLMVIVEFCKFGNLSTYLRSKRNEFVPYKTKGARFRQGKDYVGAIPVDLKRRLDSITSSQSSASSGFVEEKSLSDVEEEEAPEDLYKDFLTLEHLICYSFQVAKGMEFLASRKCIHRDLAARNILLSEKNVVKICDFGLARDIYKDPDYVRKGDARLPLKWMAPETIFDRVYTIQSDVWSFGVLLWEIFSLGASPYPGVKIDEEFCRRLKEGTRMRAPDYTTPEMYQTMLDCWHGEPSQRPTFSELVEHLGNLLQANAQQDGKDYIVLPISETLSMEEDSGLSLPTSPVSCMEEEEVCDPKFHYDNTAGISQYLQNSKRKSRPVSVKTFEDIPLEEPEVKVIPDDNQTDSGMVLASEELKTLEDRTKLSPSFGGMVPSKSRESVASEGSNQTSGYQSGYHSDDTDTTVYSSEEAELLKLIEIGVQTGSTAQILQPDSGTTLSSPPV

Row | Compound | IC50 (human FAK) [µM] | IC50 [1] [µM] | IC50 [2] [µM] | melting point [°C]
1 | NC(=O)c1c[nH]cc1-c1ccc(NC(=O)Nc2cc(C(F)(F)F)ccc2F)cc1 [Example 1, 4-{4-[3-(2-Fluoro-5-trifluoromethylphenyl)ureido]phenyl}-1H-pyrrole-3-carboxamide] | 2.06 | 0.069 | 6.47 | –
2 | CC(=O)Nc1[nH]cc(-c2ccc(NC(=O)Nc3ccc(C)c(C(F)(F)F)c3)cc2)c1C(N)=O [Example 40, 2-Acetylamino-4-{4-[3-(4-methyl-3-trifluoromethylphenyl)ureido]phenyl}-1H-pyrrole-3-carboxamide] | – | – | – | 266
3 | CCCC(=O)Nc1[nH]cc(-c2ccc(NC(=O)Nc3cc(C(F)(F)F)ccc3F)cc2)c1C(N)=O [Example 5, 2-Butyrylamino-4-{4-[3-(2-fluoro-5-trifluoromethylphenyl)ureido]phenyl}-1H-pyrrole-3-carboxamide] | 0.266 | 0.011 | 0.042 | –
4 | CC(=O)Nc1[nH]cc(-c2ccc(NC(=O)Nc3ccc(C)c(C)c3)cc2)c1C(N)=O [Example 19, 2-Acetylamino-4-{4-[3-(3,4-dimethylphenyl)ureido]phenyl}-1H-pyrrole-3-carboxamide] | 0.717 | 0.125 | 0.013 | –
5 | CC(=O)Nc1[nH]cc(-c2ccc(NC(=O)Nc3ccc(OC(F)(F)F)cc3)cc2)c1C(N)=O [Example 21, 2-Acetylamino-4-{4-[3-(4-trifluoromethoxyphenyl)ureido]phenyl}-1H-pyrrole-3-carboxamide] | 0.163 | 0.118 | 0.019 | –
